Data as given in patent publication US10858393B2, “Crystal of reduced glutathione and method for producing same” (KYOWA HAKKO BIO CO., LTD., priority 2016, dated 2020).
Like-named read-outs stand apart in the source and are kept apart here.

What was measured:
[1] = cited from earlier work
[2] = 100 g/L in water, hermetically sealed, 25° C. or 40° C., FIG. 1
Experimental: The vertical axis represents the peak area of L-cysteinyl-L-glycine with respect to the peak area of reduced glutathione which is taken as 100 in an HPLC analysis of the aqueous solution. […] In FIG. 1, the white circles indicate the results at 40° C., and the black lozenges indicate the results at 25° C.
An α-type crystal of reduced glutathione (manufactured by Kojin Co., Ltd.) was dissolved in water, and thereafter, the solution was adjusted to 100 g/L and hermetically sealed and placed in a thermostat bath at 25° C. or 40° C. while stirring. These reduced glutathione aqueous solutions were sampled over time and subjected to an HPLC analysis.

In the case of `N[C@@H](CCC(=O)N[C@@H](CS)C(=O)NCC(=O)O)C(=O)O` [reduced glutathione, γ-L-glutamyl-L-cysteinyl-L-glycine], the “saturation solubility in water” value ([1]; 10° C.) is listed as 83 mg/mL, the “saturation solubility in water” value ([1]; 25° C.) is listed as 130 mg/mL and the “stability in aqueous solution (formation of L-cysteinyl-L-glycine over time, HPLC)” value [2] is listed as “decomposed over time in a temperature-dependent manner to produce L-cysteinyl-L-glycine”.
